Test results as given in patent US20150290260A1, “METHODS OF USE FOR PROBIOTICS AND PREBIOTICS” (Mead Johnson Nutrition Company, priority 2014, published 2015).

Assays:
[1] = Viscera-motor response (VMR) to colorectal distension (CRD), rat colonic zymosan-treated hyperalgesia model; format: in vivo, rats
Description: Example 3 utilized a rat colonic zymosan-treated hyperalgesia model (i.e. a model of post-inflammatory visceral pain sensitivity). Zymosan was injected into the colon during the neonatal period producing short-term inflammation and subsequent long-term colonic hypersensitivity.
In this experiment, weanling rats were fed a control diet or control diet plus LGG and/or PDX/GOS for 40 days. The VMR to CRD was quantified using electromyographic (EMG) recordings from the external oblique muscle of the abdomen as an objective measure of visceral sensation in all groups. A stimulus-response function to graded CRD was constructed to test the colonic intensity dependent increase in EMG activity change of external oblique muscle.

[2] = test system: neurotransmitters (biogenic monoamines) in the brain; experiment: Neurotransmitter levels in the brain by HPLC, neonatal zymosan visceral hyperalgesia rats; format: in vivo; conditions: brain stem, vs non-LGG treated rats, LGG P21-P60, FIG. 6A
Source text: This example describes the effect of LGG on the neurotransmitter levels in the brain. Briefly, chronic visceral hyperalgesia was induced in rats by administration of intracolonic zymosan (or normal saline for control) for three consecutive days during postnatal day 14-16 (P14-P16). LGG treatment was initiated after weaning (P21) and continued until P60. The levels of neurotransmitters and amino acids were quantified in the frontal cortex, sub-cortex, brain stem and cerebellum.
The quantitative assessment of neurotransmitters was conducted using HPLC-based separation followed by fluorescent and/or electrochemical detection. Briefly, brain sections were homogenized, using a tissue dismembrator, in 100-750 ul of 0.1 M TCA, which contains 10-2 M sodium acetate, 10^-4 M EDTA, 5 ng/ml isoproterenol (as internal standard) and 10.5% methanol (pH 3.8). Samples were spun in a microcentrifuge at 10000 g for 20 minutes. Samples of the supernatant were then analyzed for neurotransmitters (biogenic monoamines). Biogenic amines were determined by a specific HPLC assay utilizing an Antec Decade II (oxidation: 0.4) (3 mm GC WE, HYREF) electrochemical detector operated at 33° C. Twenty I samples of the supernatant were injected using a Water 2707 autosampler onto a Phenomenex Kintex (2.6u, 100 Å) C18 HPLC column (100×4.60 mm). Biogenic amines were eluted with a mobile phase consisting of 89.5% 0.1 M TCA, 10-2 M sodium acetate, 10^-4 M EDTA and 10.5% methanol (pH 3.8). Solvent was delivered at 0.6 ml/min using a Waters 515 HPLC pump. Using this HPLC solvent the following biogenic amines eluted in the following order: noradrenaline, Adrenaline, DOPAC, Dopamine, 5-HIAA, HVA, 5-HT, and 3-MT. HPLC control and data acquisition were managed by Empower software.

## Lactobacillus rhamnosus GG [LGG]
[1]; neonatal colonic zymosan model
  visceral hypersensitivity: attenuated
[1]; p<0.05 vs Control+Zymosan, n=10, fed 40 days
  sensitivity to pain (EMG recordings): significantly attenuated
[1]; zymosan-treated rats, FIG. 7
  viscera-motor response (VMR) to CRD: significantly attenuated
[2]
  level of 5-hydroxyindoleacetic acid (5-HIAA): significant increase
  level of noradrenaline (NA): significant increase
  level of serotonin (5-HT): significant increase
